Measured values published in ChEMBL document CHEMBL3627636, “Novel bivalent inhibitors with sub-nanomolar affinities towards human glyoxalase I” (Bioorg Med Chem Lett, 2015).
pKi: −log10 of the molar value. ≈ marks a conversion by molar mass, not a printed value.

Legend:
Lactoylglutathione lyase [1] = target: T1, Lactoylglutathione lyase (Homo sapiens, UniProt Q04760); experiment: Inhibition of 6-His tagged recombinant human glyoxalase 1 transfected in Escherichia coli BL21 (DE3) assessed as S-D-lactoylglutathione formation by spectrophotometer
T1 sequence (Q04760 whole entry): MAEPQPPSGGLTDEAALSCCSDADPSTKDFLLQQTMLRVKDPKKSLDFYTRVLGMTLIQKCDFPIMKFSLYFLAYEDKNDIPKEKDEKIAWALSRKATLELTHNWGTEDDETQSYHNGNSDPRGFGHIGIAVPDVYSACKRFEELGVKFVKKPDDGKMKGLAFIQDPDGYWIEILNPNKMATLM

[2] = Inhibition of yeast glyoxalase 1; design: species or system Saccharomyces cerevisiae
[3] = target: Hydroxyacylglutathione hydrolase, mitochondrial (Bos taurus, UniProt Q3B7M2); experiment: Inhibition of bovine liver glyoxalase 2
[4] = Solubility of compound; assay type: physicochemical
Lactoylglutathione lyase [5] = target: T1, Lactoylglutathione lyase; experiment: Inhibition of human glyoxalase 1

`O=C(O)CNC(=O)C(CSC(=O)N(O)c1ccc(Br)cc1)NC(=O)CCC(NCCC(=O)OCCOCCOCCOCCNC(=O)CCCCCCC(=O)NCCCOCCOCCOCCCNC(=O)CCCCCCC(=O)NCCOCCOCCOCCOC(=O)CCNC(CCC(=O)NC(CSC(=O)N(O)c1ccc(Br)cc1)C(=O)NCC(=O)O)C(=O)O)C(=O)O` (stereo unspecified) showed a pKi (Lactoylglutathione lyase [1]) of 9.00, a pKi [2] of 5.16 and a pKi [3] of 6.86. The solubility [4] was 26 mg/mL (≈ 12.8 mM).

`O=C(O)CNC(=O)C(CSC(=O)N(O)c1ccc(Br)cc1)NC(=O)CCC(NCCC(=O)OCCNC(=O)CCNC(=O)CC(=O)NCCNC(=O)CC(=O)NCCC(=O)NCCOC(=O)CCNC(CCC(=O)NC(CSC(=O)N(O)c1ccc(Br)cc1)C(=O)NCC(=O)O)C(=O)O)C(=O)O` (stereo unspecified) showed a pKi (Lactoylglutathione lyase [1]) of 9.52, a pKi [2] of 5.43 and a pKi [3] of 7.09. The solubility [4] was 32 mg/mL (≈ 19.9 mM).

Compound `NCCC(=O)NC(CCC(=O)NC(CSC(=O)N(O)c1ccc(Cl)cc1)C(=O)NCC(=O)O)C(=O)O` (stereo unspecified) has a pKi (Lactoylglutathione lyase [5]) of 6.48.

Work on `CC(=O)CNC(CCC(=O)NC(CSC(=O)N(O)c1ccc(Cl)cc1)C(=O)NCC(=O)O)C(=O)O` (stereo unspecified) yielded a pKi (Lactoylglutathione lyase [5]) of 6.89.

Work on `CCOC(=O)CCNC(CCC(=O)NC(CSC(=O)N(O)c1ccc(Cl)cc1)C(=O)NCC(=O)O)C(=O)O` (stereo unspecified) yielded a pKi (Lactoylglutathione lyase [5]) of 7.34.
